Reference: PubChem BioAssay (NCI)
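Five concentrations, 48 hours, 96-well plates. Abbreviation: GI50, concentration required for 50% inhibition of growth. Definition used: TGI = concentration required for complete inhibition of growth.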

How the values were obtained:
Assay in all cases: NCI-60 cell line screen, 48 h
[1] = system: OVCAR-4 ovarian
[2] = system: PC-3 prostate
[3] = system: DU-145 prostate
[4] = system: UACC-62 melanoma
[5] = system: HOP-62 NSCLC
[6] = system: OVCAR-3 ovarian
[7] = system: HCT-116 colon
[8] = system: CAKI-1 renal
[9] = system: RPMI-8226 leukemia
[10] = system: A498 renal
[11] = system: NCI-H226 lung
[12] = system: HL-60(TB) leukemia
[13] = system: NCI-H460 lung
[14] = system: M14 melanoma
[15] = system: U251 CNS
[16] = system: LOX IMVI melanoma
[17] = system: RXF 393 renal
[18] = system: SK-MEL-2 melanoma
[19] = system: SK-OV-3 ovarian
[20] = system: HCT-15 colon
[21] = system: HT29 colon
[22] = system: 786-0 renal
[23] = system: UACC-257 melanoma
[24] = system: A549 NSCLC
[25] = system: MCF7 breast
[26] = system: SK-MEL-5 melanoma
[27] = system: SF-268 CNS
[28] = system: NCI/ADR-RES ovarian
[29] = system: K-562 leukemia
[30] = system: OVCAR-8 ovarian
[31] = system: BT-549 breast
[32] = system: SR leukemia
[33] = system: SK-MEL-28 melanoma
[34] = system: UO-31 renal
[35] = system: NCI-H23 lung
[36] = system: CCRF-CEM leukemia
[37] = system: HCC-2998 colon
[38] = system: SN12C renal
[39] = system: NCI-H522 lung
[40] = system: ACHN renal
[41] = system: IGROV1 ovarian
[42] = system: MOLT-4 leukemia
[43] = system: TK-10 renal
[44] = system: SW-620 colon
[45] = system: KM12 colon
[46] = system: HOP-92 NSCLC
[47] = system: HS 578T breast
[48] = system: SNB-19 CNS
[49] = system: MALME-3M melanoma
[50] = system: T-47D breast
[51] = system: SF-295 CNS
[52] = system: OVCAR-5 ovarian
[53] = system: SF-539 CNS
[54] = system: SNB-75 CNS
[55] = system: MDA-MB-435
[56] = system: COLO 205 colon
[57] = system: MDA-MB-231 breast

## Cc1cc(Nc2cc(CN3CCOCC3)c3nc(C)c(Cc4ccc(Cl)cc4F)n3n2)n[nH]1
[1]
  GI50: 2850 nM
  TGI: 16.7 µM
[2]
  GI50: 2070 nM
  TGI: 18.3 µM
[3]
  GI50: 1240 nM
  TGI: 11.5 µM
[4]
  GI50: 2360 nM
  TGI: 11.3 µM
[5]
  GI50: 1840 nM
  TGI: 9.49 µM
[6]
  GI50: 3.24 µM
  TGI: 15.3 µM
[7]
  GI50: 689 nM
  TGI: 2650 nM
[8]
  GI50: 1740 nM
  TGI: 4.67 µM
[9]
  GI50: 1880 nM
  TGI: 14.8 µM
[10]
  GI50: 288 nM
  TGI: 1100 nM
[11]
  GI50: 561 nM
  TGI: 4.07 µM
[12]
  GI50: 768 nM
  TGI: 2860 nM
[13]
  GI50: 437 nM
  TGI: 6.63 µM
[14]
  GI50: 1830 nM
  TGI: 14.2 µM
[15]
  GI50: 1520 nM
  TGI: 5.24 µM
[16]
  GI50: 1110 nM
  TGI: 2690 nM
[17]
  GI50: 545 nM
  TGI: 2130 nM
[18]
  GI50: 2370 nM
  TGI: 7.64 µM
[19]
  GI50: 2020 nM
  TGI: 6.38 µM
[20]
  GI50: 2620 nM
  TGI: 14.9 µM
[21]
  GI50: 1440 nM
  TGI: 12.3 µM
[22]
  GI50: 1670 nM
  TGI: 6.18 µM
[23]
  GI50: 3.35 µM
  TGI: 16.2 µM
[24]
  GI50: 919 nM
  TGI: 6.16 µM
[25]
  GI50: 644 nM
  TGI: 12.9 µM
[26]
  GI50: 2270 nM
  TGI: 8.72 µM
[27]
  GI50: 1030 nM
  TGI: 4.65 µM
[28]
  GI50: 4.28 µM
  TGI: 18.7 µM
[29]
  GI50: 473 nM
  TGI: 13.6 µM
[30]
  GI50: 2790 nM
  TGI: 17.2 µM
[31]
  GI50: 1730 nM
  TGI: 8.92 µM
[32]
  GI50: 282 nM
  TGI: 1530 nM
[33]
  GI50: 3.5 µM
  TGI: 17.2 µM
[34]
  GI50: 1410 nM
  TGI: 2970 nM
[35]
  GI50: 1720 nM
  TGI: 8.35 µM
[36]
  GI50: 590 nM
  TGI: 3.94 µM
[37]
  GI50: 1490 nM
  TGI: 3.13 µM
[38]
  GI50: 1140 nM
  TGI: 15.9 µM
[39]
  GI50: 566 nM
  TGI: 2020 nM
[40]
  GI50: 1630 nM
  TGI: 10.9 µM
[41]
  GI50: 2150 nM
  TGI: 5.57 µM
[42]
  GI50: 1590 nM
  TGI: 6.71 µM
[43]
  GI50: 2140 nM
  TGI: 6.61 µM
[44]
  GI50: 1070 nM
  TGI: 14.3 µM
[45]
  GI50: 48.1 nM
  TGI: 5.6 µM
[46]
  GI50: 1650 nM
  TGI: 5.01 µM
[47]
  GI50: 915 nM
  TGI: 5.6 µM
[48]
  GI50: 6.31 µM
  TGI: 19 µM
[49]
  GI50: 4.35 µM
  TGI: 20.6 µM
[50]
  GI50: 1230 nM
  TGI: 16.2 µM
[51]
  GI50: 1790 nM
  TGI: 5.73 µM
[52]
  GI50: 1800 nM
  TGI: 7.03 µM
[53]
  GI50: 1360 nM
  TGI: 3.26 µM
[54]
  GI50: 433 nM
  TGI: 2400 nM
[55]
  GI50: 694 nM
  TGI: 19.6 µM
[56]
  GI50: 684 nM
  TGI: 2010 nM
[57]
  GI50: 1570 nM
  TGI: 5.65 µM
